Key:
[1] = tested on: A549 cell lysate; experiment: A549 cell lysate labeling with azido-sugars, SDS-PAGE; assay type: cell-based, human
Description: The inventive and commercial compounds were examined in A549 cell lysate labeling experiments using azido-sugars. Cell extracts were prepared from A549 incubated with azido-sugar N-azidoacetylgalactosamine […], N-azidoacetylglucosamine (GlcNAz) or N-azidoacetylmannosamine […]. The cell extracts were incubated with either 550 Compound 1-phosphine, 650 Compound 1-phosphine, CLICK-iT® Alexa555-Alkyne, or CLICK-iT® Alexa Fluor 647 DIBO Alkyne and analyzed by SDS-PAGE. The resulting lysates were separated by electrophoresis. 10 μg protein was loaded onto a PAGE gel (4-12% Bis-Tris gel).
The resulting lysates were separated by electrophoresis. […]
FIGS. 63-64 graphically represent band intensity of FIGS. 61-62. […] Relative fluorescence intensity for the gel image of FIG. 61 comparing Alexa555 (copper) and 550 Compound 1-phosphine (FIG. 63) and for the gel image of FIG. 62 comparing Alexa647 (copper-less) and 650 Compound 1-phosphine (FIG. 64).

[2] = tested on: mouse IgG immunoglobulin; experiment: Functional plate assay of compound-PEG4-GAM conjugates (RFU); assay type: binding; details: conjugates at 4 μg/ml on mouse IgG coated plates; FIGS. 13-14
Description: Performance of compound-GAM conjugates and compound-GAR conjugates was evaluated in a functional assay. Wells of a 96 white opaque plate were coated with target proteins mouse IgG immunoglobulin or rabbit IgG immunoglobulin. One hundred μl mouse or rabbit IgG at a concentration of 10 μg/ml was applied to the corresponding wells in columns 1 and 2. The target proteins were serially diluted 1:1 from the wells in columns 2 to 11 using 100 μl PBS. One hundred μl of samples from the wells in column 11 were discarded. One hundred μl PBS was added to the wells in column 12. The plates were incubated overnight at 4° C. and then blocked 2×200 μl with Thermo Scientific SuperBlock® Blocking Buffer. […] The plates were washed with 2×200 μl with PBS-Tween and 1×200 μl with PBS and filled with PBS buffer (100 μl/well) prior to scanning on Tecan Safire using 562 nmexcitation/576 nmemission to detect fluorescence intensity and DyLight 649 and DyLight 650 plated were measured using 654 nmexcitation/673 nmemission.
As shown in FIGS. 13-14, the fluorescence intensity, also termed the RFU, was compared for compound-PEG4-GAM conjugates where the compound was DyLight 549-phosphine (blue; FIG. 13), 550 Compound 1-phosphine (red; FIG. 13), DyLight 649-phosphine (red; FIG. 14) and 650 Compound 1-phosphine (blue; FIG. 14) at various concentrations. […]

[3] = Thermal stress stability of the compounds, purity by HPLC before and after storage; assay type: physicochemical; details: unit size 1 mg; for Purity Before thermal stress: packed under argon, HPLC before storage; for Purity After thermal stress: under argon, stored at 50° C. for 14 days, HPLC
Description: The inventive compounds were evaluated for stability compared to commercial dyes. All compounds were packed under argon as 1 mg portions in plastic vials. The vials were sealed under argon with a drying pad in an aluminium coated pouch, and then stored at 50° C. for 14 days. The results of the stability study for selected compounds are shown below where the determination of purity was by HPLC before and after storage.

[4] = tested on: secretory vesicles in HK2, A549, and U2OS cells; experiment: Secretory vesicle labeling with Az-ManNAc; assay type: cell-based; details: N-azidoacetyl mannosamine; co-localized with PGP9.5
Text: The inventive and commercial compounds were used to label secretory vesicles in various cell types using azido-sugars. […] Co-localization of Man-650 Compound 1-phosphine, and this labeling was co-localized with PGP9.5, a secreted protein, as shown in FIGS. 65B and 66B (red arrows).

[5] = tested on: A549 cells; experiment: Azido-sugar cell labeling, A549 cells; assay type: cell-based, human; details: N-azidoacetyl galactosamine, 100 μM dye-phosphine 3 h 37° C.
Text: (§1) The inventive and commercial compounds were examined in cell labeling experiments using azido-sugars and adenocarcinomic human alveolar basal epithelial (A549) cells, human osteosarcoma (U2OS) cells, and immortalized proximal tubule epithelial (HK2) cells. As is known in the art, introduction of labeled sugar moieties results in incorporation of the labeled sugar moieties in various cellular molecules and locations.
Metabolically incorporated azido-labeled sugars, N-azidoacetyl galactosamine, N-azidoacetyl glucosamine, and N-azidoacetyl mannosamine was detected in vivo. Cells were incubated with 40 μM azido-sugar in cell culture media for 72 hours and the live cells were incubated with 100 μM of dye-labeled phosphine. The cells were then washed, fixed with 4% paraformaldehyde and counterstained with Hoechst 33342 which labels nuclei. For fixed cells, the cells were incubated with the azido-sugar, fixed with 4% paraformaldehyde, permeabilized with 0.1% Triton X-100, and incubated with 100 μM of dye-labeled phosphine. […]
Fluorescence intensity was measured in each spot identified using a specific Bio-Application with the ArrayScanVTI image analysis software. […]

[6] = tested on: U2OS cells; experiment: Azido-sugar cell labeling, U2OS cells; assay type: cell-based, human; details: 100 μM dye-phosphine
Text: as §1
Metabolically incorporated azido-labeled sugars, N-azidoacetyl galactosamine, N-azidoacetyl glucosamine, and N-azidoacetyl mannosamine was detected in vivo. Cells were incubated with 40 μM azido-sugar in cell culture media for 72 hours and the live cells were incubated with 100 μM of dye-labeled phosphine. The cells were then washed, fixed with 4% paraformaldehyde and counterstained with Hoechst 33342 which labels nuclei. For fixed cells, the cells were incubated with the azido-sugar, fixed with 4% paraformaldehyde, permeabilized with 0.1% Triton X-100, and incubated with 100 μM of dye-labeled phosphine. In live cell labeling using the phosphine labeling reaction used 100 μM of the dye-labeled phosphine for three hours at 37° C., and the CLICK-iT® labeling reaction, using DIBO-Alexa dye, used 30 μM of the DIBO Alexa dye for one hour at room temperature (RT). […]

[7] = tested on: HK2 cells; experiment: Azido-sugar cell labeling, HK2 cells; assay type: cell-based; details: 100 μM dye-phosphine
Text: as §1
Metabolically incorporated azido-labeled sugars, N-azidoacetyl galactosamine, N-azidoacetyl glucosamine, and N-azidoacetyl mannosamine was detected in vivo. Cells were incubated with 40 μM azido-sugar in cell culture media for 72 hours and the live cells were incubated with 100 μM of dye-labeled phosphine. The cells were then washed, fixed with 4% paraformaldehyde and counterstained with Hoechst 33342 which labels nuclei. For fixed cells, the cells were incubated with the azido-sugar, fixed with 4% paraformaldehyde, permeabilized with 0.1% Triton X-100, and incubated with 100 μM of dye-labeled phosphine. In live cell labeling using the phosphine labeling reaction used 100 μM of the dye-labeled phosphine for three hours at 37° C., and the CLICK-iT® labeling reaction, using DIBO-Alexa dye, used 30 μM of the DIBO Alexa dye for one hour at room temperature (RT). In fixed cell labeling, the phosphine labeling reaction used 100 μM of the dye-labeled phosphine for three hours at 37° C., and the CLICK-IT® labeling reaction, using DIBO-Alexa dye, used 50 μM of the DIBO Alexa dye for one hour at RT in the presence of 5 μM copper for one hour at RT in the absence of copper.
HK2 cells, either live (column A) or fixed (column B), were labeled with N-azidoacetyl galactosamine followed by labeling with 550 Compound 1-phosphine (row 1), 650 Compound 1-phosphine (row 2), or Copperless CLICK-iT® using DIBO-Alexa647 (row 3), as shown in FIG. 52. A graphical representation of the spot average intensity for the images of FIG. 52 is shown for labeling live (FIG. 53) and fixed (FIG. 54) cells. […]

2-((1E,3E)-3-(1-(6-(2-(3-(diphenylphosphino)-4-(methoxycarbonyl)benzamido)ethylamino)-6-oxohexyl)-3-methyl-5-sulfonato-3-(3-sulfonatopropyl)indolin-2-ylidene)prop-1-enyl)-1-(2-methoxyethyl)-3-methyl-3-(3-sulfonatopropyl)-3H-indolium-5-sulfonate [550 Compound 1-phosphine]
band intensity of labeled lysate versus CLICK-iT Alexa 555-alkyne ([1]; A549 lysates, three azido-sugars, 10 μg protein per lane, FIG. 63): better than CLICK-iT® Alexa 555-alkyne | fluorescence intensity (RFU) of compound-PEG4-GAM conjugates compared with DyLight 549 / DyLight 649 conjugate [2]: similar | Purity Before thermal stress [3]: 96% | Purity After thermal stress [3]: 96%

2-((1E,3E,5E)-5-(1-(6-(2-(3-(diphenylphosphino)-4-(methoxycarbonyl)benzamido)ethylamino)-6-oxohexyl)-3-methyl-5-sulfonato-3-(3-sulfonatopropyl)indolin-2-ylidene)penta-1,3-dienyl)-1-(2-methoxyethyl)-3-methyl-3-(3-sulfonatopropyl)-3H-indolium-5-sulfonate [650 Compound 1-phosphine]
secretory vesicle labeling [4]: resulted in labeling of secretory vesicles | labeling pattern of lysate on gel ([1]; A549 lysates with Az-GalNAc, Az-GlcNAc or Az-ManNAc, FIG. 62): different labeling pattern for each of the three incorporated azido-sugars | fluorescence intensity (RFU) of compound-PEG4-GAM conjugates compared with DyLight 549 / DyLight 649 conjugate [2]: similar | live cell labeling (spot average intensity) versus Alexa647-DIBO CLICK-iT [5]: better than Alexa647-DIBO CLICK-iT® labeling | live cell labeling (spot average intensity) versus Alexa647-DIBO CLICK-iT ([6]; N-azidoacetyl glucosamine): better than Alexa647-DIBO CLICK-iT® labeling | live cell labeling (spot average intensity) versus Alexa647-DIBO CLICK-iT ([6]; N-azidoacetyl mannosamine): better than Alexa647-DIBO CLICK-iT® labeling | live cell labeling (spot average intensity) versus Alexa647-DIBO CLICK-iT ([7]; N-azidoacetyl galactosamine): better than Alexa647-DIBO CLICK-iT® labeling | live cell labeling (spot average intensity) versus Alexa647-DIBO CLICK-iT ([7]; N-azidoacetyl glucosamine): better than Alexa647-DI BO CLICK-iT® labeling | live cell labeling (spot average intensity) versus Alexa647-DIBO CLICK-iT ([7]; N-azidoacetyl mannosamine): better than Alexa647-DIBO CLICK-iT® labeling | Purity Before thermal stress [3]: 97% | Purity After thermal stress [3]: 96%
